Measured values taken from US20050171032A1, “Methods for the treatment of cancer” (priority 2002, published 2005).

Experiments:
[1] = system: Human primary culture prostate epithelial cells; experiment: Apoptosis by cell death detection ELISA in primary culture prostate epithelial cells; format: cell-based; conditions: various concentrations simvastatin, 16 hours; FIG. 7
Procedure: Human primary culture prostate epithelial cells were treated with various concentrations simvastatin or were mock treated as indicated at 37 °C for 16 hours. Subsequently the cells were lysed and apoptosis was quantified by cell death detection ELISA (Roche).

[2] = system: EGFR; experiment: EGFR phosphorylation by immunoblot of detergent fractions, LNCaP cells; format: cell-based, human
Procedure: Mock- or filipin (2 μg/ml)-pretreated cells were incubated in serum-free medium with or without cholesterol/cyclodextrin (Cholesterol) complexes for 1 h at 37° C. followed by EGF treatment for 20 min. […] All cells were subjected to SDEM and the I- and S-fractions analyzed by immunoblot. p-EGFR indicates EGFR phosphorylated on Y1173 detected with a phospho-specific Ab. Cell viability measured by Trypan blue exclusion 1 h after treatment of cells with filipin (FIG. 2B).
LNCaP cells were used for all experiments shown. Prior to challenge with EGF (2 or 20 ng/ml), some groups of cells were treated with filipin (2 μg/ml) (lanes 7-12) for 1 h. Other cells (lanes 4-6, 10-12) were subsequently incubated with cyclodextrin/cholesterol complexes (Cholesterol) for 1 h to replete cholesterol (FIG. 4A). In this and subsequent panels, lysates were isolated following the various treatments and processed for immunoblot analysis. p-Akt refers to a phosphorylated form of Akt1 detected with a phospho-specific Ab (Ser-473). Cells were serum-starved overnight, then pretreated with 5 mM cyclodextrin for the indicated times (lanes 1-6), or treated for 1 h with varying concentrations of cyclodextrin (lanes 7-10), then treated immediately afterward with vehicle or with 5 ng/ml EGF (FIG. 4B). […]

[3] = system: LNCaP cells; experiment: Apoptosis assays (TUNEL/flow cytometry, cell death detection ELISA, DNA ladder) in LNCaP cells; format: cell-based, human; conditions: serum-free, 20 μM LY294002 20 h, 2 μg/ml filipin 1 h, FIG. 3
Procedure: Apoptosis was quantified by TUNEL in combination with flow cytometry (FIG. 3A). LNCaP cells were seeded 24 h before treatments in 6-well plates at a density of 2-4×10^5/well. Conditions shown are: 20 h in serum-free medium (SFM); 20 μM LY294002 (LY); 20 μM LY294002 with 10 ng/ml EGF treatment (LY+E); 2 μg/ml filipin for 1 h (F); filipin treatment as (F) with 10 ng/ml EGF for 20 h (F+E); treatment with 2 μg/ml filipin and cyclodextrin/cholesterol complexes (C) for 1 h, followed by incubation with serum-free medium containing 20 μM LY294002 and 10 ng/ml EGF for 20 h (F+C+LY+E). Quantitative measurement of DNA fragmentation was performed with a cell death detection ELISA kit (FIG. 3B). […]
A quantitative sandwich ELISA was performed to measure mono- and oligonucleosomes in the cytoplasmic fraction of cell lysates according to the manufacturer's manual (Cell death detection ELISA) (Roche, Indianapolis, Ind.). Briefly, 1.5-2.0×10^5 cells/well were seeded in 6-well plates for 24 h, cell lysates were collected after various treatments as indicated, and the amount of histone-associated DNA fragments was quantified by spectrophotometric measurement of peroxidase activity retained in the immunocomplex (415 nm) against the substrate solution as a blank (490 nm). Apoptosis was also evaluated by the TUNEL method, using the In Situ Cell Death Detection Kit (Roche, Indianapolis, Ind.).

[4] = system: LNCaP cells; experiment: Cell viability by Trypan blue exclusion; format: cell-based, human; conditions: 1 h after filipin treatment, at the doses used; FIG. 2
Procedure: Mock- or filipin (2 μg/ml)-pretreated cells were incubated in serum-free medium with or without cholesterol/cyclodextrin (Cholesterol) complexes for 1 h at 37° C. followed by EGF treatment for 20 min. (FIG. 2A). All cells were subjected to SDEM and the I- and S-fractions analyzed by immunoblot. p-EGFR indicates EGFR phosphorylated on Y1173 detected with a phospho-specific Ab. Cell viability measured by Trypan blue exclusion 1 h after treatment of cells with filipin (FIG. 2B).

[5] = system: Akt1; experiment: Akt1 phosphorylation (Ser-473) by immunoblot, LNCaP cells; format: cell-based, human; conditions: FIG. 4A
Procedure: LNCaP cells were used for all experiments shown. Prior to challenge with EGF (2 or 20 ng/ml), some groups of cells were treated with filipin (2 μg/ml) (lanes 7-12) for 1 h. Other cells (lanes 4-6, 10-12) were subsequently incubated with cyclodextrin/cholesterol complexes (Cholesterol) for 1 h to replete cholesterol (FIG. 4A). In this and subsequent panels, lysates were isolated following the various treatments and processed for immunoblot analysis. p-Akt refers to a phosphorylated form of Akt1 detected with a phospho-specific Ab ([…]). […] Cell lysates were isolated following the various treatments and processed for immunoblot analysis. p-Akt=phosphorylated form of Akt detected with a phospho-specific Ab ([…]). […] In these experiments the apoptosis of cells treated with simvastatin or mock-treated, with or without raft reconstitution, was quantified by cell death detection ELISA (Roche). Cells were either mock-treated or treated with various doses of simvastatin as indicated for 16 hours and the amount of apoptosis was quantified by ELISA and is graphically represented as absorbance at 405 nm-490 nm vs. dose of statin drug±SD from triplicate determinations (FIG. 6B). The cells were treated either in simvastatin (Sim; 10 μM) or simvastatin (Sim) and cyclodextrin/cholesterol complex (+cholesterol) for 4 hours and the amount of apoptosis was quantified by ELISA (FIG. 6C). […]

[6] = system: LNCaP-Cav-1 cells; experiment: EGFR and Akt1 phosphorylation by immunoblot, caveolin-1 transfected LNCaP cells; format: cell-based, human; conditions: 2 μg/ml filipin 1 h, 5 ng/ml EGF 20 min, FIG. 4F
Procedure: LNCaP cells were used for all experiments shown. Prior to challenge with EGF (2 or 20 ng/ml), some groups of cells were treated with filipin (2 μg/ml) (lanes 7-12) for 1 h. Other cells (lanes 4-6, 10-12) were subsequently incubated with cyclodextrin/cholesterol complexes (Cholesterol) for 1 h to replete cholesterol (FIG. 4A). In this and subsequent panels, lysates were isolated following the various treatments and processed for immunoblot analysis. p-Akt refers to a phosphorylated form of Akt1 detected with a phospho-specific Ab (Ser-473). Cells were serum-starved overnight, then pretreated with 5 mM cyclodextrin for the indicated times (lanes 1-6), or treated for 1 h with varying concentrations of cyclodextrin (lanes 7-10), then treated immediately afterward with vehicle or with 5 ng/ml EGF (FIG. 4B). Cells were either mock-treated or treated with varying doses of filipin as indicated for 1 h followed by 5 ng/ml EGF treatment (FIG. 4C). Serum-containing medium was removed and cells were treated immediately with 2 μg/ml filipin alone under serum-free conditions for the times shown (FIG. 4D). No change in EGFR or Akt1 phosphorylation was observed when serum was removed and cells were not treated with filipin (not shown). […]

[7] = system: PC-3 cells; experiment: EGFR and Akt1 phosphorylation by immunoblot, PC-3 cells; format: cell-based, human; conditions: 2 μg/ml filipin 1 h, 5 ng/ml EGF 20 min, FIG. 4F
Procedure: Prior to challenge with EGF (2 or 20 ng/ml), some groups of cells were treated with filipin (2 μg/ml) (lanes 7-12) for 1 h. […] In this and subsequent panels, lysates were isolated following the various treatments and processed for immunoblot analysis. p-Akt refers to a phosphorylated form of Akt1 detected with a phospho-specific Ab (Ser-473). […] LNCaP-Cav-1 cells and PC-3 cells were mock-treated or treated with 2 μg/ml filipin for 1 h at 37° C. […] Prior to the collection of cell lysates and immunoblot analysis, cells were stimulated with 5 ng/ml EGF for 20 min at 37° C.
Human PCa cell lines LNCaP and PC-3 were purchased from the American Type Culture Collection (ATCC; Rockville, Md.). Both cell lines were cultured in RPMI 1640 supplemented with 10% heat-inactivated FBS.

[8] = system: prostate glandular hyperplasia; conditions: dogs; published evidence (30); cited from earlier work

SMILES | apoptosis in normal prostatic cells [1] | ligand-dependent EGFR phosphorylation in the I-fraction ([2]; filipin pretreatment 2 μg/ml, then EGF 20 min, FIG. 2) | constitutive and EGF-induced EGFR phosphorylation ([2]; varying filipin doses and times, FIG. 4A, C, D) | apoptosis [3] | cells that excluded Trypan blue [4] [%] | EGF-induced Akt1 phosphorylation ([5]; 2 μg/ml filipin 1 h, 20 ng/ml EGF) | constitutive and EGF-induced Akt1 phosphorylation ([5]; varying filipin doses and times, C, D) | ligand-induced Akt1 phosphorylation [6] | ligand-induced EGFR phosphorylation [6] | ligand-induced Akt1 phosphorylation [7] | ligand-induced EGFR phosphorylation [7] | reduction of prostate glandular hyperplasia [8] | toxicity [8]
CCC(C)(C)C(=O)O[C@H]1C[C@@H](C)C=C2C=C[C@H](C)[C@H](CC[C@@H]3C[C@@H](O)CC(=O)O3)[C@H]21 [simvastatin] | does not cause apoptosis | – | – | – | – | – | – | – | – | – | – | – | –
CCCCC[C@@H](O)[C@H]1C(=O)O[C@H](C)[C@@H](O)/C=C/C=C/C=C/C=C/C=C(\C)[C@@H](O)C[C@H](O)C[C@H](O)C[C@H](O)C[C@H](O)C[C@H](O)C[C@@H]1O [filipin, Filipin] | – | suppressed | decreased with filipin treatment in a dose- and time-dependent fashion | stimulated apoptosis to a similar extent as the PI3K inhibitor | 100 | substantially reduced | decreased with filipin treatment in a dose- and time-dependent fashion | suppressed | suppressed | suppressed | suppressed | up to 75% | no toxicity
